Laboratory results reported in publication PMC12669672, “Structural insights into selective and dual antagonism of EP2 and EP4 prostaglandin receptors” (The EMBO Journal, 2025).
pIC50: −log10 of the molar value. “And” between values parts separate entries of the source, which are not always exact repeats. Equal entries are not always repeated. “Also recorded” adds a separate entry of the source. Where two headings read alike, the source gives them in different places.

How the values were obtained:
Type in all cases: cell-based
EP4 WT = target: T1, EP4 WT (Homo sapiens, UniProt P35408); assay: GloSensor cAMP assay, antagonism of PGE2-induced cAMP; details: for remaining activity at 10 µM / remaining activity at 1 µM / remaining activity at 0.1 µM / remaining activity at 0.01 µM / remaining activity at 0.001 µM / remaining activity at 0.0001 µM / remaining activity at 10 pM / remaining activity at 1 pM: 1 h; for remaining activity at 0.1 µM: Grapiprant log([M]) -7
T1 construct: The full-length EP2 or EP4 was cloned into the pcDNA3.1 vector; FLAG (N); expressed in transfected cells; host or cells: AD293 cells
T1 sequence (P35408 whole entry): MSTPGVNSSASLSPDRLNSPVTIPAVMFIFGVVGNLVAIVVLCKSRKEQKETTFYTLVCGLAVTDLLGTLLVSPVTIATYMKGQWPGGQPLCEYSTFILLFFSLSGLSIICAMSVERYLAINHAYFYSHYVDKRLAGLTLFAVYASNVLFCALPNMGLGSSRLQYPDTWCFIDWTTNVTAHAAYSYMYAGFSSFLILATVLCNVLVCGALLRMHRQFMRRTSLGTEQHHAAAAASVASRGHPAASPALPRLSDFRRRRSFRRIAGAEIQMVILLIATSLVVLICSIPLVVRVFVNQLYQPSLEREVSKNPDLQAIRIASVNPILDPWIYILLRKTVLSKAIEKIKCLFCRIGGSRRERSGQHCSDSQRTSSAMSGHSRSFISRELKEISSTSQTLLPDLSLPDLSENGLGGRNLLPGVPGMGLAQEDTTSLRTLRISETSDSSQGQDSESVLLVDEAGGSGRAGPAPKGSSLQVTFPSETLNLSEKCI
Method: (§1) The full-length EP2 or EP4 was cloned into the pcDNA3.1 vector (Invitrogen), incorporating an N-terminal FLAG tag. AD293 cells were seeded in six-well plates containing DMEM supplemented with 10% dialyzed FBS 1 day prior to transfection. Following overnight growth, cells were transfected with a 1:1 ratio of receptor construct and GloSensor22F cAMP biosensor (Promega) plasmids.
(§2) Twenty-four hours post-transfection, the cells were transferred to CO2-independent media containing 2% GloSensor cAMP Reagent (Promega) and distributed into 384-well assay plates at a density of 4000 cells per well in 10 μL. […] The plates were then incubated at 37 °C for an additional hour before luminescence measurements were taken using an EnVision plate reader.
(§3) Data analysis was performed using GraphPad Prism software v8.0.1. A nonlinear regression analysis, employing a sigmoidal dose–response model, was conducted to determine the Emax values and half-maximum inhibitory concentrations (IC50) for each compound tested.

EP2 WT = EP2 WT (Homo sapiens, UniProt P43116); assay: as above; parameters: The full-length EP2 or EP4 was cloned into the pcDNA3.1 vector; FLAG (N); expressed in transfected cells; host or cells: AD293 cells; details: 1 h, single experiments 1st-3rd, Fig. S1A
Chain of EP2 WT (P43116 whole entry): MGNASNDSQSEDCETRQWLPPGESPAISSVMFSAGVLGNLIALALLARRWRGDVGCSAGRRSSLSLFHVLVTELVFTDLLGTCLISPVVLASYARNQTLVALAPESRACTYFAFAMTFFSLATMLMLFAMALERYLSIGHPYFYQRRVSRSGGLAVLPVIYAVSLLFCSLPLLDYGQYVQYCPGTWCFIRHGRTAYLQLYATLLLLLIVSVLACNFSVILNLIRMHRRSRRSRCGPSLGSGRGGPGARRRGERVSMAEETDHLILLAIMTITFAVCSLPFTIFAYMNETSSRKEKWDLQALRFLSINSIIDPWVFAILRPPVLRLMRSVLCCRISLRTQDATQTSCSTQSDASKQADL
Method: as §1, §2, §3

[1] = target: T2, constitutively active EP4 S319A (Homo sapiens, UniProt P35408, S319A); assay: GloSensor cAMP assay, inhibition of constitutive activity; details: for ΔpIC50: no PGE2, pIC50 mutant - pIC50 WT, mean
T2 construct: The full-length EP2 or EP4 was cloned into the pcDNA3.1 vector (Invitrogen), incorporating an N-terminal FLAG tag; expressed in transfected cells; host or cells: AD293
T2 sequence (P35408 whole entry S319A): as the sequence (P35408 whole entry) above, with S319A counted along it
Method: as §1, §2, §3

[2] = target: T3, constitutively active EP4 WT (Homo sapiens, UniProt P35408); assay: as above
T3 construct: The full-length EP2 or EP4 was cloned into the pcDNA3.1 vector (Invitrogen), incorporating an N-terminal FLAG tag; expressed in transfected cells; host or cells: AD293
T3 sequence (P35408 whole entry): as the sequence (P35408 whole entry) above
Method: as §1, §2, §3

[3] = target: T4, constitutively active EP4 V320A (Homo sapiens, UniProt P35408, V320A); assay: as above; details: for ΔpIC50: no PGE2, pIC50 mutant - pIC50 WT, mean
T4 construct: The full-length EP2 or EP4 was cloned into the pcDNA3.1 vector (Invitrogen), incorporating an N-terminal FLAG tag; expressed in transfected cells; host or cells: AD293
T4 sequence (P35408 whole entry V320A): as the sequence (P35408 whole entry) above, with V320A counted along it
Method: as §1, §2, §3

Work on `CCc1nc2c(C)nc(C)cc2n1-c1ccc(CCNC(=O)NS(=O)(=O)c2ccc(C)cc2)cc1` [Grapiprant] yielded a pIC50 (EP4 WT) of 7.45, a remaining activity at 10 µM (EP4 WT; Grapiprant log([M]) -5, read-out: % cAMP activity (normalized to WT)) of 2.75% and a remaining activity at 1 µM (EP4 WT; Grapiprant log([M]) -6, read-out: % cAMP activity (normalized to WT)) of 3.71%. It also gave a remaining activity at 0.1 µM (EP4 WT; read-out: % cAMP activity (normalized to WT)) of 21%, a remaining activity at 0.1 µM (EP4 WT; single experiments 1st-3rd, Fig. S7C, read-out: % cAMP activity (normalized to WT)) of 30.1% and a remaining activity at 0.01 µM (EP4 WT; Grapiprant log([M]) -8, read-out: % cAMP activity (normalized to WT)) of 83.1%. The remaining activity at 0.01 µM (EP4 WT; Grapiprant log([M]) -8, single experiments 1st-3rd, Fig. S7C, read-out: % cAMP activity (normalized to WT)) was 88.1%, the remaining activity at 0.001 µM (EP4 WT; Grapiprant log([M]) -9, read-out: % cAMP activity (normalized to WT)) was 96.3% and the remaining activity at 0.0001 µM (EP4 WT; Grapiprant log([M]) -10, read-out: % cAMP activity (normalized to WT)) was 90.2%. The remaining activity at 0.0001 µM (EP4 WT; Grapiprant log([M]) -10, single experiments 1st-3rd, Fig. S7C, read-out: % cAMP activity (normalized to WT)) was 96.7%, the remaining activity at 10 pM (EP4 WT; Grapiprant log([M]) -11, read-out: % cAMP activity (normalized to WT)) was 97.9% and the remaining activity at 10 pM (EP4 WT; Grapiprant log([M]) -11, single experiments 1st-3rd, Fig. S7C, read-out: % cAMP activity (normalized to WT)) was 101%. It also gave a remaining activity at 1 pM (EP4 WT; Grapiprant log([M]) -12, read-out: % cAMP activity (normalized to WT)) of 103%, a remaining activity at 1 pM (EP4 WT; Grapiprant log([M]) -12, single experiments 1st-3rd, Fig. S7C, read-out: % cAMP activity (normalized to WT)) of 93.3% and a remaining activity at 10 µM (EP4 WT; read-out: % cAMP activity EP4 (normalized to Grapiprant), ligand log([M]) -5, single experiments 1st-3rd, Fig. S1A) of 2.69%. The remaining activity at 1 µM (EP4 WT; read-out: % cAMP activity EP4 (normalized to Grapiprant), ligand log([M]) -6, single experiments 1st-3rd, Fig. S1A) was 5.1%, the remaining activity at 0.01 µM (EP4 WT; read-out: % cAMP activity EP4 (normalized to Grapiprant), ligand log([M]) -8, single experiments 1st-3rd, Fig. S1A) was 94.2% and the remaining activity at 0.001 µM (EP4 WT; read-out: % cAMP activity EP4 (normalized to Grapiprant), ligand log([M]) -9, single experiments 1st-3rd, Fig. S1A) was 97%. The remaining activity at 0.0001 µM (EP4 WT; read-out: % cAMP activity EP4 (normalized to Grapiprant), ligand log([M]) -10, single experiments 1st-3rd, Fig. S1A) was 100%, the remaining activity at 10 pM (EP4 WT; read-out: % cAMP activity EP4 (normalized to Grapiprant), ligand log([M]) -11, single experiments 1st-3rd, Fig. S1A) was 93.5% and the remaining activity at 1 pM (EP4 WT; read-out: % cAMP activity EP4 (normalized to Grapiprant), ligand log([M]) -12, single experiments 1st-3rd, Fig. S1A) was 102%. The “cAMP activity (∆pIC50 from EP4 WT)” value (EP4 WT; Grapiprant, WT, single experiments 1st-3rd) was 0.1372 and 0.1162 and -0.1508, the “antagonism profile EP4 versus EP2 (in words)” value (EP4 WT; cAMP accumulation assay upon PGE2 stimulation, Appendix Fig. S1A) was “selective antagonists of EP2 and EP4, respectively; also recorded: strong selectivity” and the remaining activity at 10 µM (EP2 WT; read-out: % cAMP activity on EP2 (normalized to PF-04418948), ligand log([M]) -5) was 90.7%. It also gave a remaining activity at 1 µM (EP2 WT; read-out: % cAMP activity on EP2 (normalized to PF-04418948), ligand log([M]) -6) of 105%, a remaining activity at 0.1 µM (EP2 WT; read-out: % cAMP activity on EP2 (normalized to PF-04418948), ligand log([M]) -7) of 107% and a remaining activity at 0.01 µM (EP2 WT; read-out: % cAMP activity on EP2 (normalized to PF-04418948), ligand log([M]) -8) of 113%. The remaining activity at 0.001 µM (EP2 WT; read-out: % cAMP activity on EP2 (normalized to PF-04418948), ligand log([M]) -9) was 115%, the remaining activity at 0.0001 µM (EP2 WT; read-out: % cAMP activity on EP2 (normalized to PF-04418948), ligand log([M]) -10) was 114% and the remaining activity at 10 pM (EP2 WT; read-out: % cAMP activity on EP2 (normalized to PF-04418948), ligand log([M]) -11) was 120%. It also gave a remaining activity at 1 pM (EP2 WT; read-out: % cAMP activity on EP2 (normalized to PF-04418948), ligand log([M]) -12) of 107%, a pIC50 [1] of 7.78 and a remaining activity at 0.1 µM ([1]; 1 h, Grapiprant log([M]) -7.00, EP4-S319A, read-out: % cAMP activity (normalized to WT)) of 23.1%. It also gave a remaining activity at 0.01 µM ([1]; 1 h, Grapiprant log([M]) -8.00, EP4-S319A, read-out: % cAMP activity (normalized to WT)) of 84.7%, a remaining activity at 0.001 µM ([1]; 1 h, Grapiprant log([M]) -9.00, EP4-S319A, read-out: % cAMP activity (normalized to WT)) of 130% and a remaining activity at 1 pM ([1]; 1 h, Grapiprant log([M]) -12.00, EP4-S319A, read-out: % cAMP activity (normalized to WT)) of 118%. For the same compound, the “Grapiprant cAMP activity (∆pIC50 from EP4 WT), Mean” value ([1]; S319A, Mean) was -0.598, the ΔpIC50 [1] was -0.60 ± 0.09 and the ΔpIC50 ([1]; listed as grapiprant) was “reduced the potency”. For the same compound, the pIC50 [2] was 8.37, the remaining activity at 0.1 µM ([2]; 1 h, Grapiprant log([M]) -7.00, EP4-WT, read-out: % cAMP activity (normalized to WT)) was 4.26% and the remaining activity at 0.01 µM ([2]; 1 h, Grapiprant log([M]) -8.00, EP4-WT, read-out: % cAMP activity (normalized to WT)) was 24.2%. For the same compound, the remaining activity at 0.001 µM ([2]; 1 h, Grapiprant log([M]) -9.00, EP4-WT, read-out: % cAMP activity (normalized to WT)) was 84.9%, the remaining activity at 0.0001 µM ([2]; 1 h, Grapiprant log([M]) -10.00, EP4-WT, read-out: % cAMP activity (normalized to WT)) was 92.5% and the remaining activity at 10 pM ([2]; 1 h, Grapiprant log([M]) -11.00, EP4-WT, read-out: % cAMP activity (normalized to WT)) was 101%. For the same compound, the remaining activity at 1 pM ([2]; 1 h, Grapiprant log([M]) -12.00, EP4-WT, read-out: % cAMP activity (normalized to WT)) was 101%, the “Grapiprant cAMP activity (∆pIC50 from EP4 WT)” value ([2]; WT, single experiments 1st-3rd) was 0.061 and -0.077 and -0.012 and the pIC50 [3] was 7.95. For the same compound, the remaining activity at 0.1 µM ([3]; 1 h, Grapiprant log([M]) -7.00, EP4-V320A, read-out: % cAMP activity (normalized to WT)) was 7.66%, the remaining activity at 0.01 µM ([3]; 1 h, Grapiprant log([M]) -8.00, EP4-V320A, read-out: % cAMP activity (normalized to WT)) was 35.4% and the remaining activity at 0.001 µM ([3]; 1 h, Grapiprant log([M]) -9.00, EP4-V320A, read-out: % cAMP activity (normalized to WT)) was 48.1%. It also gave a remaining activity at 0.0001 µM ([3]; 1 h, Grapiprant log([M]) -10.00, EP4-V320A, read-out: % cAMP activity (normalized to WT)) of 61.4%, a remaining activity at 10 pM ([3]; 1 h, Grapiprant log([M]) -11.00, EP4-V320A, read-out: % cAMP activity (normalized to WT)) of 56.1% and a remaining activity at 1 pM ([3]; 1 h, Grapiprant log([M]) -12.00, EP4-V320A, read-out: % cAMP activity (normalized to WT)) of 50.8%. The “Grapiprant cAMP activity (∆pIC50 from EP4 WT), Mean” value ([3]; V320A, Mean) was -0.388, the ΔpIC50 [3] was -0.39 ± 0.12 and the ΔpIC50 ([3]; listed as grapiprant) was “reduced the potency”.
